Assays:
[1] = system: SARS-CoV-2; experiment: (§1) Antiviral activity against SARS-CoV-2 infected in HAEC cells assessed as reduction in viral replication incubated for 1.5 hrs followed by virus removal upto 24 hrs and subsequent replacement of medium containing compound by RT-qPCR analysis; type: functional, organism-based; conditions: Severe acute respiratory syndrome coronavirus 2, HAEC
[2] = system: SARS-CoV-2; experiment: as §1, with “Potency index, ratio of EC50 of GS-441524 to EC50 of test compound for antiviral” for “Antiviral”; type: functional, Severe acute respiratory syndrome coronavirus 2; conditions: time <= 25.5 hrs

Structure (SMILES) | EC50 [1] | Ratio [2]
CCC(CC)OC(=O)[C@H](C)N[P@](=O)(OC[C@H]1O[C@@](C#N)(c2ccc3c(N)ncnn23)[C@H](O)[C@@H]1O)Oc1ccccc1 | 48 nM | 11
N#C[C@@]1(c2ccc3c(N)ncnn23)O[C@H](CO)[C@@H](O)[C@H]1O [GS-441524] | 510 nM | 
